Measurements published in patent publication US20140030234A1, “METHODS AND COMPOSITIONS FOR MODULATING ISLET BETA CELL DEVELOPMENT” (The Board of Trustees of the Leland Stanford Junior …, priority 2012, published 2014).

Tests used:
[1] = system: NFATc1; assay: ChIP of NFATc1 on isolated human islets; type: cell-based; parameters: NFATc1 association at CCNA2, CCND2 and FOXM1 promoter sites: dose or concentration left out as unconfirmed
Description: Islets from P20 C57/BL6 mice were isolated (as above) and fixed with 1% formaldehyde for 10 minutes at room temperature. Cross-linking was quenched by the addition of 0.125 M glycine and islets were washed in DPBS. ChIPs were then performed using the EZ-Magna ChIP™ G Chromatin Immunoprecipitation Kit (Millipore), following the manufacturer's protocol. Briefly, following cell and nuclear lysis, islets were sonicated to shear chromatin using a Bioruptor Sonicator (Diagenode) at maximum power; set for 15 seconds ON followed by 45 seconds OFF for a total time of 10 minutes. Precleared chromatin from 200-300 islets was used for each ChIP sample with incubation of 1 to 10 ug of the appropriate antibodies overnight at 4° C. Before IP, 1/10 of the extract was saved for use as the input. […] Resulting chromatin was then amplified using the GenomePlex WGA4 Whole Genome Amplification Kit (Sigma) and quantified using nanodrop. Equal amounts of chromatin DNA were then analyzed by quantitative PCR in the ABI Prism 7500 detection system (Applied Biosystems) using Power SYBR Green PCR Master Mix (Applied Biosystems). […]
Human islet studies. […] Islets were immunostained for insulin and BrdU and β-cell proliferation rate was determined by quantifying the percentage of insulin+ and BrdU^+ cells. A minimum of 50 islets and over 2000 β-cells were scored per condition.

[2] = system: NFATc1; assay: Chromatin immunoprecipitation (ChIP) of NFATc1 in mouse islets; type: cell-based
Description: Islets from P20 C57/BL6 mice were isolated (as above) and fixed with 1% formaldehyde for 10 minutes at room temperature. Cross-linking was quenched by the addition of 0.125 M glycine and islets were washed in DPBS. ChIPs were then performed using the EZ-Magna ChIP™ G Chromatin Immunoprecipitation Kit (Millipore), following the manufacturer's protocol. Briefly, following cell and nuclear lysis, islets were sonicated to shear chromatin using a Bioruptor Sonicator (Diagenode) at maximum power; set for 15 seconds ON followed by 45 seconds OFF for a total time of 10 minutes. Precleared chromatin from 200-300 islets was used for each ChIP sample with incubation of 1 to 10 ug of the appropriate antibodies overnight at 4° C. Before IP, 1/10 of the extract was saved for use as the input. Antibodies used for IP were mouse monoclonal anti-RNA Polymerase (1 ug, Millipore, 05-623B), rabbit anti-IgG (1 ug, Santa Cruz, sc-2027), and rabbit anti-NFATc1 (5 ug, Imgenex, #IMG-5101A). Resulting chromatin was then amplified using the GenomePlex WGA4 Whole Genome Amplification Kit (Sigma) and quantified using nanodrop. Equal amounts of chromatin DNA were then analyzed by quantitative PCR in the ABI Prism 7500 detection system (Applied Biosystems) using Power SYBR Green PCR Master Mix (Applied Biosystems). […]

[3] = system: cultured human islets; settings: cultured human islets exposed to FK506; cited from earlier work
[4] = system: islets isolated from WT, P20 mice; assay: qRT-PCR of mRNA in cultured neonatal mouse islets exposed to FK506; type: cell-based
Description: (§1) Quantitative Real-time RT-PCR. Mouse islets were isolated by standard collagenase pancreatic perfusion as previously described (Heit et al. (2006a), supra). Total islet mRNA was then isolated using the RNeasy Microkit (QIAGEN) according to the manufacturer's instructions and RNA amount and purity were assessed by Nanodrop spectrophotometry. Any remaining contaminant DNA was removed by treating samples with 1 unit of RNAse-free DNAse (Fermentas). Next, cDNA was prepared from 750 ng of total islet RNA using the RETROscript kit (Ambion) and analyzed by quantitative real-time PCR (QPCR) using TaqMan Universal PCR Master Mix (ABI) and the ABI Prism 7500 detection system. For culture studies, islets harvested from mice of the indicated genotype were placed in standard media (RPMI 1640 with 4.5 mM glucose containing 10% FBS and 1% pen/strep) at 37° C. and 5% CO2. For some experiments islets were maintained in media containing vehicle (DMSO), glucokinase activator (GKA) R0-28-1675 (10 μM; Axon Ligands) and/or FK506 (10 μM; LC Laboratories) for 72 hours, with media changes every 24 hours. Additionally, β-cells from MIP-EGFP islets were isolated using fluorescence-activated cell sorting as previously described (Sugiyama, T., et al. (2007). Conserved markers of fetal pancreatic epithelium permit prospective isolation of islet progenitor cells by FACS. Proc. Natl. Acad. Sci. U.S.A 104, 175-180) and processed as above for analysis by QPCR. Each quantitative analysis was performed in triplicate and islets from 3 to 6 mice of each genotype were independently tested. Data are normalized to β-actin and results are expressed as the mean±S.E.M.

[5] = system: human islets; assay: qRT-PCR of mRNA in cultured human islets exposed to FK506; type: cell-based; settings: 72 hr
Description: (§2) Quantitative Real-time RT-PCR. Mouse islets were isolated by standard collagenase pancreatic perfusion as previously described (Heit et al. (2006a), supra). Total islet mRNA was then isolated using the RNeasy Microkit (QIAGEN) according to the manufacturer's instructions and RNA amount and purity were assessed by Nanodrop spectrophotometry. Any remaining contaminant DNA was removed by treating samples with 1 unit of RNAse-free DNAse (Fermentas). Next, cDNA was prepared from 750 ng of total islet RNA using the RETROscript kit (Ambion) and analyzed by quantitative real-time PCR (QPCR) using TaqMan Universal PCR Master Mix (ABI) and the ABI Prism 7500 detection system. Human islet studies. Human islet samples were obtained from healthy, non-diabetic organ donors deceased due to acute traumatic or anoxic death and offered by NDR1 (National Diseases Resource Interchange). Islets were isolated by Bottino, R. at the University of Pittsburg, or by Bryant, S, and Thompson A. at the University of Alabama, Birmingham. […] After isolation, islets were shipped directly to our laboratory and were transferred to fresh islet culture medium (RPMI 1640 with 4.5 mM glucose containing 10% FBS and 1% pen/strep). As with mouse islets, islet samples were split and treated with either vehicle (DMSO) or FK506 ([…], LC laboratories) for 72 hours, with medium changes every 24 hours. Islets were then handpicked with dithizone staining and aliquots of 1000 IEQ were spun down and snap frozen for mRNA isolation or crosslinked as described above for ChIP studies. BrdU analysis was performed on the donor batch by treating islets with 50 uM BrdU and chasing for 24 hrs. Afterwards, islets were placed in 2% agarose and processed within paraffin blocks as described above. Islets were immunostained for insulin and BrdU and β-cell proliferation rate was determined by quantifying the percentage of insulin+ and BrdU^+ cells. A minimum of 50 islets and over 2000 β-cells were scored per condition.

[6] = cited from earlier work
[7] = system: cultured P10 islets; assay: qRT-PCR of mRNA in cultured P10 mouse islets exposed to glucokinase activator with or without FK506; type: cell-based
Description: as §1

[8] = system: neonatal human islets; assay: BrdU incorporation, β-cell proliferation in human islets; type: cell-based; settings: islets of donor, FK506 vs vehicle (FIG. 6G-H)
Description: as §2, with “Human” for “Quantitative Real-time RT-PCR. Mouse islets were isolated by standard collagenase pancreatic perfusion as previously described (Heit et al. (2006a), supra). Total islet mRNA was then isolated using the RNeasy Microkit (QIAGEN) according to the manufacturer's instructions and RNA amount and purity were assessed by Nanodrop spectrophotometry. Any remaining contaminant DNA was removed by treating samples with 1 unit of RNAse-free DNAse (Fermentas). Next, cDNA was prepared from 750 ng of total islet RNA using the RETROscript kit (Ambion) and analyzed by quantitative real-time PCR (QPCR) using TaqMan Universal PCR Master Mix (ABI) and the ABI Prism 7500 detection system. Human”

[9] = WT P20 mouse islets, FK506 10 μM, 72 hr, vs vehicle (FIG. 3F)
[10] = FK506 10 μM, vs vehicle (FIG. 4A)

Which “NFATc1 binding at CHGA, CHGB, IAPP, and IA2 sites” value ([1]; human islets, FK506 10 μM, 24 hr (FIG. 4B)) does the source give for C=CC[C@@H]1/C=C(\C)C[C@H](C)C[C@H](OC)[C@H]2O[C@@](O)(C(=O)C(=O)N3CCCC[C@H]3C(=O)O[C@H](/C(C)=C/[C@@H]3CC[C@@H](O)[C@H](OC)C3)[C@H](C)[C@@H](O)CC1=O)[C@H](C)C[C@@H]2OC [FK506, tacrolimus] here?
Its value is “consistently reduced”.

What about the “NFATc1 association at CCNA2, CCND2 and FOXM1 promoter sites” value ([1]; neonatal human islets) of the same compound?
Its value is “FK506-sensitive”.

What about the “NFATc1 binding at ChgA, ChgB and IA2 promoters” value ([2]; WT P20 mouse islets, FK506 24 hr (FIG. 3K)) of the same compound?
The value was “reduced to levels comparable to IgG controls”.

What about the “NFATc1 binding at CcnD2, FoxM1 and CcnA2 promoter sites” value ([2]; WT neonatal mouse islets, FK506 24 hr (FIG. 5J)) of the same compound?
The value was “consistently reduced NFATc1 binding to background levels”.

What about the DCG numbers [3] of the same compound?
Its DCG numbers is “reduced”.

What about the insulin secretion [3] of the same compound?
Its insulin secretion is “impaired”.

What about the “levels of Hnf4a mRNA” value [4, 9] of the same compound?
Its value is “remained unchanged”.

And the “levels of Ins1, Ins2, ChgA, ChgB, IAPP and IA2 mRNA” value [4, 9]?
The value was “significantly reduced”.

And the “levels of CcnA2, CcnD2 and FoxM1 mRNAs” value ([4]; neonatal WT mouse islets, FK506, 72 hr, vs vehicle (FIG. 5E))?
Its value is “significantly decreased”.

What about the “CCNA2, CCND2 and FOXM1 mRNA levels” value ([5]; vs vehicle (FIG. 6F)) of the same compound?
The value was “significantly decreased”.

What about the “islet levels of mRNA encoding HNF4a” value [5, 10] of the same compound?
Its value is “unaffected”.

What about the “mRNAs encoding INS, CHGA, CHGB, IAPP, and IA2” value [5, 10] of the same compound?
Its value is “reduction”.

What about the “incidence of diabetes mellitus” value ([6]; patients administered calcineurin inhibitors) of the same compound?
The value was “high incidence”.

And the “patients developing diabetes mellitus” value ([6]; patients requiring immunosuppression with calcineurin inhibitors)?
Its value is 10-30%.

What about the “GKA induction of CcnA2, CcnD2 and FoxM1 mRNAs” value ([7]; P10 islets, simultaneous exposure to FK506, 10 μM each, 72 hr (FIG. 7D)) of the same compound?
The value was “attenuated or blocked”.

What about the “GKA elevation of Insulin 2 (Ins2) levels” value ([7]; WT P10 islets, GKA+FK506, 10 μM each, 72 hr (FIG. 7B)) of the same compound?
The value was “blunted”.

What about the “GKA induction of NFATc1 mRNA” value ([7]; WT P10 islets, simultaneous exposure to FK506 and GKA, 10 μM each, 72 hr (FIG. 7A)) of the same compound?
Its value is “blocked”.

And the “GKA increase of ChgA, ChgB, IAPP, and IA2 mRNAs” value ([7]; neonatal P10 islets, GKA+FK506, 10 μM each, 72 hr (FIG. 7C))?
The value was “eliminated or significantly reduced”.

What about the “reduction of β-cell BrdU incorporation” value [8] of the same compound?
The value was about 3 fold.
